Experiment [1] concerns the target T1, CaM (Bos taurus, UniProt P62157).
T1 construct: made in house; host or cells: E. coli BL21 (DE3)
Nature of the experiment: Pull-down assay with immobilized protein and LSM libraries. The experiment is classed as binding, bovine. To be noted: H14 library; 1:2 stoichiometry assumed; read-out: Surface mapping KD (apparent). A digest of the protocol: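 His-tagged protein immobilized on Co-NTA resin, equilibrated 30 min at room temperature with LSM sublibraries (64 members, […]), equimolar protein to total probe. CaM buffer: 20 mM HEPES pH 7.4, 150 mM NaCl, 5 mM CaCl2. Bound fractions from HPLC-MS loss of unbound probe versus protein-free resin control; Kd derived.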

In experiment [2] the target is T2, S100B (Homo sapiens, UniProt P04271).
T2 construct: made in house; host or cells: Escherichia coli BL21(DE3)
T2 sequence (P04271 1-92): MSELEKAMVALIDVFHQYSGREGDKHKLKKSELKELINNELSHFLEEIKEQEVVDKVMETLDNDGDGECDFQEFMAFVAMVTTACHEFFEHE
Nature of the experiment: Competition pull-down with native ligand RSK1 (689–735). The experiment is classed as binding. The note with it: H14 library; competitor peptide 200 µM; read-out: Surface mapping KD (apparent), competition.

Experiment [3] deals with T2, S100B. Nature of the experiment: Pull-down assay with immobilized protein and LSM libraries. The experiment is classed as binding. The note with it: H14 library; 1:1 binding assumed; read-out: Surface mapping KD (apparent). In a few lines:
(§1)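 Buffers were HEPES pH 7.4 with 150 mM NaCl, plus 1 mM TCEP and 1 mM CaCl2 (50 mM HEPES) for S100A4 and S100B, 1 mM TCEP for Gal-1, and no additive for RecQ-WH. Immobilized protein at 64 µM was equilibrated 30 min with the LSM sublibrary, and unbound probes were measured by LC-MS.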

The target of experiment [4] is T3, Gal-1 (Homo sapiens, UniProt P09382).
T3 construct: made in house; host or cells: E. coli BL21(DE3)
T3 sequence (P09382 whole entry): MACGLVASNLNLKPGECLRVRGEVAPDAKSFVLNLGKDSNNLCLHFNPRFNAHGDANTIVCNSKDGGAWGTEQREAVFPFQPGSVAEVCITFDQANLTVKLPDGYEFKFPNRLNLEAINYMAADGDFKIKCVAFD
The description is as above. The class given is binding. The note with it: H14 library; 1:1 binding assumed; read-out: Surface mapping KD (apparent). In a few lines:
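His-tagged protein immobilized on Co-NTA resin (64 µM) in 20 mM HEPES pH 7.4, 150 mM NaCl, equilibrated 30 min at room temperature with foldamer LSM sublibraries at equimolar total concentration. Unbound fractions quantified by HPLC-MS versus protein-free resin control; apparent KD assumes 1:1 binding.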

The next experiment concerns the target T4, S100A4 (Homo sapiens, UniProt P26447).
T4 construct: made in house; host or cells: Escherichia coli BL21(DE3)
The experiment is described as above. The class given is binding. The note with it: H14 library; 1:1 binding assumed; read-out: Surface mapping KD (apparent). A digest of the protocol: as §1

Experiment [5] addresses T3, Gal-1. Nature of the experiment: Competition pull-down with lactose. The class given is binding. To be noted: H14 library; lactose 10 mM; read-out: Surface mapping KD (apparent), competition. In a few lines: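 His6-tagged proteins immobilized on Co-NTA resin at 64 µM final with 64-member LSM foldamer sublibraries (1 M each, as printed) in pH 7.4 HEPES/NaCl buffers (Ca2+/TCEP per target), 30 min RT; competitor peptides 200 µM final, lactose 10 mM for Gal-1. Bound fractions from LC-MS loss vs protein-free resin; KD assuming 1:1 binding.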

For experiment [6], the target named is T1, CaM. Nature of the experiment: Competition pull-down with native ligand TRPV1-Ct15. The experiment is classed as binding, bovine. The note with it: H14 library; competitor peptide 200 µM; read-out: Surface mapping KD (apparent), competition.

The structures appear in SMILES notation.

T4 sequence (P26447 whole entry): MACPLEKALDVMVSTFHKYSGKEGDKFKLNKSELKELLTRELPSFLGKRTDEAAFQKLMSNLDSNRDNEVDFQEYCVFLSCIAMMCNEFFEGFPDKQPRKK

For `CSCC[C@@H](CC(=O)N[C@H]1CCCC[C@@H]1C(N)=O)NC(=O)[C@H]1CCCC[C@@H]1NC(=O)[C@H]1CCCC[C@@H]1NC(=O)C[C@H](C)NC(=O)[C@H]1CCCC[C@@H]1N` [H14 AM], the Kd was 98 µM on CaM [1]; 359 µM at S100B [2]; 256 µM on S100B [3]; 307 µM at Gal-1 [4]; 10 µM at S100A4; 487 µM at Gal-1 [5].
In the case of `CC(C)[C@@H](CC(=O)N[C@H]1CCCC[C@@H]1C(N)=O)NC(=O)[C@H]1CCCC[C@@H]1NC(=O)[C@H]1CCCC[C@@H]1NC(=O)C[C@H](C)NC(=O)[C@H]1CCCC[C@@H]1N` [H14 AV], the Kd at CaM [1] was 42 µM; at S100B [2], 316 µM; on S100B [3], 153 µM; at Gal-1 [4], 100 µM; on S100A4 it was 6 µM; at Gal-1 [5], 201 µM.
`C[C@@H](CC(=O)N[C@H]1CCCC[C@@H]1C(=O)N[C@H]1CCCC[C@@H]1C(=O)N[C@H](CC(=O)N[C@H]1CCCC[C@@H]1C(N)=O)Cc1c[nH]c2ccccc12)NC(=O)[C@H]1CCCC[C@@H]1N` [H14 AW]: the Kd at CaM [1] is 2 µM; at S100B [2] it was 127 µM; at S100B [3], 42 µM; on Gal-1 [4], 203 µM; on S100A4, 42 µM; on CaM [6] it was 297 µM.
Take `CSCC[C@@H](CC(=O)N[C@H]1CCCC[C@@H]1C(N)=O)NC(=O)[C@H]1CCCC[C@@H]1NC(=O)[C@H]1CCCC[C@@H]1NC(=O)C[C@H](CC(=O)O)NC(=O)[C@H]1CCCC[C@@H]1N` [H14 DM]: the Kd is 159 µM at S100B [2], 397 µM on Gal-1 [5] and 322 µM on CaM [6].
`CC[C@H](C)[C@@H](CC(=O)N[C@H]1CCCC[C@@H]1C(=O)N[C@H]1CCCC[C@@H]1C(=O)N[C@H](CC(=O)N[C@H]1CCCC[C@@H]1C(N)=O)[C@@H](C)O)NC(=O)[C@H]1CCCC[C@@H]1N` [H14 IT]: the Kd is 51 µM on CaM [1]; 373 µM at S100B [2]; 142 µM at S100B [3]; 185 µM at Gal-1 [4]; 19 µM at S100A4; 333 µM at Gal-1 [5].
Take `CC(C)C[C@@H](CC(=O)N[C@H]1CCCC[C@@H]1C(=O)N[C@H]1CCCC[C@@H]1C(=O)N[C@@H](C)CC(=O)N[C@H]1CCCC[C@@H]1C(N)=O)NC(=O)[C@H]1CCCC[C@@H]1N` [H14 LA]: the Kd on CaM [1] came to 8 µM; at S100B [2], 294 µM; at S100B [3], 170 µM; on Gal-1 [4], 160 µM; on S100A4 it was 34 µM; on Gal-1 [5], 425 µM.
Regarding `CSCC[C@@H](CC(=O)N[C@H]1CCCC[C@@H]1C(=O)N[C@H]1CCCC[C@@H]1C(=O)N[C@@H](CC(N)=O)CC(=O)N[C@H]1CCCC[C@@H]1C(N)=O)NC(=O)[C@H]1CCCC[C@@H]1N` [H14 MN], the Kd was determined as 122 µM on CaM [1], 449 µM at S100B [2], 399 µM on Gal-1 [4] and 495 µM on Gal-1 [5].
In the case of `CSCC[C@@H](CC(=O)N[C@H]1CCCC[C@@H]1C(=O)N[C@H]1CCCC[C@@H]1C(=O)N[C@@H](CCC(N)=O)CC(=O)N[C@H]1CCCC[C@@H]1C(N)=O)NC(=O)[C@H]1CCCC[C@@H]1N` [H14 MQ], the Kd at CaM [1] stood at 145 µM; at S100B [2], 394 µM; on S100A4, 476 µM; on CaM [6], 489 µM.
For `CSCC[C@@H](CC(=O)N[C@H]1CCCC[C@@H]1C(=O)N[C@H]1CCCC[C@@H]1C(=O)N[C@@H](CO)CC(=O)N[C@H]1CCCC[C@@H]1C(N)=O)NC(=O)[C@H]1CCCC[C@@H]1N` [H14 MS], the Kd on CaM [1] turned out to be 106 µM; at S100B [2], 391 µM; at S100A4 it was 320 µM; on CaM [6] it was 431 µM.
Turning to `NC(=O)C[C@@H](CC(=O)N[C@H]1CCCC[C@@H]1C(N)=O)NC(=O)[C@H]1CCCC[C@@H]1NC(=O)[C@H]1CCCC[C@@H]1NC(=O)C[C@H](CC(N)=O)NC(=O)[C@H]1CCCC[C@@H]1N` [H14 NN], the Kd came out at 162 µM at CaM [1]; 120 µM at S100B [2]; 246 µM at Gal-1 [4]; 444 µM at Gal-1 [5]; 290 µM at CaM [6].
Turning to `NC(=O)CC[C@@H](CC(=O)N[C@H]1CCCC[C@@H]1C(N)=O)NC(=O)[C@H]1CCCC[C@@H]1NC(=O)[C@H]1CCCC[C@@H]1NC(=O)C[C@H](CC(N)=O)NC(=O)[C@H]1CCCC[C@@H]1N` [H14 NQ], the Kd at CaM [1] came out at 190 µM; on S100B [2] it was 478 µM; at Gal-1 [4], 257 µM; on CaM [6], 222 µM.
Regarding `NC(=O)C[C@@H](CC(=O)N[C@H]1CCCC[C@@H]1C(=O)N[C@H]1CCCC[C@@H]1C(=O)N[C@H](CC(=O)N[C@H]1CCCC[C@@H]1C(N)=O)Cc1ccc(O)cc1)NC(=O)[C@H]1CCCC[C@@H]1N` [H14 NY], the Kd on CaM [1] was determined as 109 µM; at S100B [2] it was 444 µM; on S100B [3], 193 µM; at Gal-1 [4], 210 µM; at Gal-1 [5], 337 µM; on CaM [6] it was 270 µM.
Take `NC(=O)CC[C@@H](CC(=O)N[C@H]1CCCC[C@@H]1C(=O)N[C@H]1CCCC[C@@H]1C(=O)N[C@H](CC(=O)N[C@H]1CCCC[C@@H]1C(N)=O)Cc1ccc(O)cc1)NC(=O)[C@H]1CCCC[C@@H]1N` [H14 QY]: the Kd on CaM [1] is 92 µM; at S100B [2], 188 µM; at S100B [3], 166 µM; on Gal-1 [4] it was 174 µM; at Gal-1 [5], 350 µM; at CaM [6], 345 µM.
For `NC(=O)CC[C@@H](CC(=O)N[C@H]1CCCC[C@@H]1C(N)=O)NC(=O)[C@H]1CCCC[C@@H]1NC(=O)[C@H]1CCCC[C@@H]1NC(=O)C[C@H](CO)NC(=O)[C@H]1CCCC[C@@H]1N` [H14 SQ], the Kd at CaM [1] was determined as 176 µM; at S100B [2] it was 445 µM; on Gal-1 [4] it was 275 µM; on Gal-1 [5], 460 µM; on CaM [6], 292 µM.
With `C[C@@H](O)[C@@H](CC(=O)N[C@H]1CCCC[C@@H]1C(=O)N[C@H]1CCCC[C@@H]1C(=O)N[C@@H](CC(N)=O)CC(=O)N[C@H]1CCCC[C@@H]1C(N)=O)NC(=O)[C@H]1CCCC[C@@H]1N` [H14 TN], the Kd at CaM [1] worked out at 176 µM; on S100B [2], 445 µM; at Gal-1 [4] it was 275 µM; on Gal-1 [5] it was 460 µM; at CaM [6], 292 µM.
As to `CC(C)[C@@H](CC(=O)N[C@H]1CCCC[C@@H]1C(=O)N[C@H]1CCCC[C@@H]1C(=O)N[C@@H](C)CC(=O)N[C@H]1CCCC[C@@H]1C(N)=O)NC(=O)[C@H]1CCCC[C@@H]1N` [H14 VA], the Kd at CaM [1] amounted to 38 µM; on S100B [2], 393 µM; at S100B [3], 299 µM; at Gal-1 [4], 114 µM; at S100A4, 35 µM; on Gal-1 [5] it was 375 µM.
On to `CC(C)[C@@H](CC(=O)N[C@H]1CCCC[C@@H]1C(=O)N[C@H]1CCCC[C@@H]1C(=O)N[C@H](CC(=O)N[C@H]1CCCC[C@@H]1C(N)=O)[C@@H](C)O)NC(=O)[C@H]1CCCC[C@@H]1N` [H14 VT], for which the Kd worked out at 142 µM at CaM [1]; 484 µM at S100B [2]; 382 µM at S100B [3]; 347 µM at Gal-1 [4]; 79 µM on S100A4.
`NC(=O)C[C@@H](CC(=O)N[C@H]1CCCC[C@@H]1C(N)=O)NC(=O)[C@H]1CCCC[C@@H]1NC(=O)[C@H]1CCCC[C@@H]1NC(=O)C[C@H](Cc1ccc(O)cc1)NC(=O)[C@H]1CCCC[C@@H]1N` [H14 YN]: the Kd on CaM [1] stood at 111 µM; at S100B [2] it was 476 µM; at Gal-1 [4] it was 313 µM; on S100A4, 435 µM; at Gal-1 [5] it was 271 µM.
For the molecule `NC(=O)CC[C@@H](CC(=O)N[C@H]1CCCC[C@@H]1C(N)=O)NC(=O)[C@H]1CCCC[C@@H]1NC(=O)[C@H]1CCCC[C@@H]1NC(=O)C[C@H](Cc1ccc(O)cc1)NC(=O)[C@H]1CCCC[C@@H]1N` [H14 YQ], the Kd is 123 µM at CaM [1]; 449 µM on S100B [2]; 480 µM at S100B [3]; 238 µM at Gal-1 [4]; 227 µM on S100A4; 439 µM on Gal-1 [5].
As to `C[C@@H](O)[C@@H](CC(=O)N[C@H]1CCCC[C@@H]1C(N)=O)NC(=O)[C@H]1CCCC[C@@H]1NC(=O)[C@H]1CCCC[C@@H]1NC(=O)C[C@H](Cc1ccc(O)cc1)NC(=O)[C@H]1CCCC[C@@H]1N` [H14 YT], the Kd on CaM [1] was determined as 30 µM; on S100B [2], 403 µM; at S100B [3] it was 416 µM; at Gal-1 [4], 396 µM; on S100A4, 222 µM.

These data come from publication PMC8162404, “Proteomimetic surface fragments distinguish targets by function” (Chemical Science, 2020).
